# According to ChEMBL document CHEMBL5321213, “Nicolaioidesin C: An Antiausterity Agent Shows Promising Antitumor Activity in a Pancreatic Cancer Xenograft Mouse Model” (J Nat Prod, 2023):
# Active and inactive are the calls of the source. The rule behind the calls is not given here.
# Legend:
# MIA PaCa-2 [1] = test: Antitumor activity against human MIA PaCa-2 cells xenografted in athymic BALB/c-nu mouse assessed as fold change in 2'-deoxycytidine level in tumor at 10 mg/kg/day, ip administered five times per week for 4 weeks by LC-MS analysis; assay type: functional
# MIA PaCa-2 [2] = test: Antitumor activity against human MIA PaCa-2 cells xenografted in athymic BALB/c-nu mouse assessed as fold change in N-acetylneuraminicacid level in tumor at 10 mg/kg/day, ip administered five times per week for 4 weeks by LC-MS analysis; assay type: functional
# MIA PaCa-2 [3] = test: Antitumor activity against human MIA PaCa-2 cells xenografted in athymic BALB/c-nu mouse assessed as fold change in cytidine 5'-monophosphate-Neu5Ac level in tumor at 2 mg/kg/day, ip administered five times per week for 4 weeks by LC-MS analysis; assay type: functional
# MIA PaCa-2 [4] = test: Antitumor activity against human MIA PaCa-2 cells xenografted in athymic BALB/c-nu mouse assessed as fold change in biotin level in tumor at 10 mg/kg/day, ip administered five times per week for 4 weeks by LC-MS analysis; assay type: functional
# MIA PaCa-2 [5] = test: Antitumor activity against human MIA PaCa-2 cells xenografted in athymic BALB/c-nu mouse assessed as fold change in arabinosyl hypoxanthine level in tumor at 10 mg/kg/day, ip administered five times per week for 4 weeks by LC-MS analysis; assay type: functional
# MIA PaCa-2 [6] = test: Antitumor activity against human MIA PaCa-2 cells xenografted in athymic BALB/c-nu mouse assessed as fold change in Gly-Leu metabolite level in tumor at 10 mg/kg/day, ip administered five times per week for 4 weeks by LC-MS analysis; assay type: functional
# MIA PaCa-2 [7] = test: Antitumor activity against human MIA PaCa-2 cells xenografted in athymic BALB/c-nu mouse assessed as fold change in benzoic acid level in tumor at 10 mg/kg/day, ip administered five times per week for 4 weeks by LC-MS analysis; assay type: functional
# MIA PaCa-2 [8] = test: Antitumor activity against human MIA PaCa-2 cells xenografted in athymic BALB/c-nu mouse assessed as fold change in sphinganine level in tumor at 2 mg/kg/day, ip administered five times per week for 4 weeks by LC-MS analysis; assay type: functional
# MIA PaCa-2 [9] = test: Antitumor activity against human MIA PaCa-2 cells xenografted in athymic BALB/c-nu mouse assessed as reduction in p-mTOR level in tumor at 2 to 10 mg/kg/day, ip administered five times per week for 4 weeks by immunohistochemistry analysis; assay type: functional, organism-based; conditions: dose 2-10 mg/kg/day
# MIA PaCa-2 [10] = test: Antitumor activity against human MIA PaCa-2 cells xenografted in athymic BALB/c-nu mouse assessed as fold change in valine level in tumor at 10 mg/kg/day, ip administered five times per week for 4 weeks by LC-MS analysis; assay type: functional
# MIA PaCa-2 [11] = test: Antitumor activity against human MIA PaCa-2 cells xenografted in athymic BALB/c-nu mouse assessed as reduction in Akt phosphorylation at S473 residue in tumor at 10 mg/kg/day, ip administered five times per week for 4 weeks by Western blot analysis; assay type: functional, organism-based
# MIA PaCa-2 [12] = test: Antitumor activity against human MIA PaCa-2 cells xenografted in athymic BALB/c-nu mouse assessed as fold change in serine level in tumor at 2 mg/kg/day, ip administered five times per week for 4 weeks by LC-MS analysis; assay type: functional
# MIA PaCa-2 [13] = test: Antitumor activity against human MIA PaCa-2 cells xenografted in athymic BALB/c-nu mouse assessed as fold change in 2,6-diaminopimelicacid level in tumor at 2 mg/kg/day, ip administered five times per week for 4 weeks by LC-MS analysis; assay type: functional
# MIA PaCa-2 [14] = test: Antitumor activity against human MIA PaCa-2 cells xenografted in athymic BALB/c-nu mouse assessed as fold change in proline level in tumor at 10 mg/kg/day, ip administered five times per week for 4 weeks by LC-MS analysis; assay type: functional
# MIA PaCa-2 [15] = test: Antitumor activity against human MIA PaCa-2 cells xenografted in athymic BALB/c-nu mouse assessed as fold change in arabinosyl hypoxanthine level in tumor at 2 mg/kg/day, ip administered five times per week for 4 weeks by LC-MS analysis; assay type: functional
# MIA PaCa-2 [16] = test: Antitumor activity against human MIA PaCa-2 cells xenografted in athymic BALB/c-nu mouse assessed as fold change in valine level in tumor at 2 mg/kg/day, ip administered five times per week for 4 weeks by LC-MS analysis; assay type: functional
# MIA PaCa-2 [17] = test: Antitumor activity against human MIA PaCa-2 cells xenografted in athymic BALB/c-nu mouse assessed as reduction in mTOR phosphorylation at S2481 residue in tumor at 10 mg/kg/day, ip administered five times per week for 4 weeks by Western blot analysis; assay type: functional, organism-based
# MIA PaCa-2 [18] = test: Antitumor activity against human MIA PaCa-2 cells xenografted in athymic BALB/c-nu mouse assessed as fold change in lysine level in tumor at 10 mg/kg/day, ip administered five times per week for 4 weeks by LC-MS analysis; assay type: functional
# MIA PaCa-2 [19] = test: Inhibition of Akt/mTOR signaling pathway in human MIA PaCa-2 cells in DMEM media assessed as reduction in AKT phosphorylation at S473 residue at 5 to 20 uM measured after 6 hrs by Western blot analysis; assay type: cell-based; conditions: dose 5-20 µM
# MIA PaCa-2 [20] = test: Antitumor activity against human MIA PaCa-2 cells xenografted in athymic BALB/c-nu mouse assessed as tumor wet weight at 2 mg/kg/day, ip administered five times per week for 4 weeks (reference value: 368 mg); assay type: functional
# MIA PaCa-2 [21] = test: Antitumor activity against human MIA PaCa-2 cells xenografted in athymic BALB/c-nu mouse assessed as fold change in phenyl alanine level in tumor at 2 mg/kg/day, ip administered five times per week for 4 weeks by LC-MS analysis; assay type: functional
# PANC-1 [22] = test: Inhibition of Akt/mTOR signaling pathway in human PANC-1 cells in DMEM media assessed as reduction in mTOR phosphorylation at S2481 residue at 5 to 20 uM measured after 6 hrs by Western blot analysis; assay type: cell-based; conditions: dose 5-20 µM
# MIA PaCa-2 [23] = test: Antitumor activity against human MIA PaCa-2 cells xenografted in athymic BALB/c-nu mouse assessed as fold change in phenyl alanine level in tumor at 10 mg/kg/day, ip administered five times per week for 4 weeks by LC-MS analysis; assay type: functional
# PANC-1 [24] = test: Antimetastatic activity in human PANC-1 cells in nutrient-rich medium assessed as open wound area at 20 uM measured every 15 mins for 24 hrs by live cell imaging analysis (reference value: 16%); assay type: functional
# MIA PaCa-2 [25] = test: Inhibition of autophagy in human MIA PaCa-2 cells in DMEM medium assessed as downregulation of LC3 protein expression at 5 to 20 uM measured after 6 hrs by Western blot analysis; assay type: functional, cell-based; conditions: dose 5-20 µM
# MIA PaCa-2 [26] = test: Antitumor activity against human MIA PaCa-2 cells xenografted in athymic BALB/c-nu mouse assessed as fold change in 3-sulfolactic acid level in tumor at 2 mg/kg/day, ip administered five times per week for 4 weeks by LC-MS analysis; assay type: functional
# MIA PaCa-2 [27] = test: Antitumor activity against human MIA PaCa-2 cells xenografted in athymic BALB/c-nu mouse assessed as fold change in 4-(methylthio)-2-oxobutyric acid level in tumor at 2 mg/kg/day, ip administered five times per week for 4 weeks by LC-MS analysis; assay type: functional
compound,measurement,setting,value
COc1cc(O)c(C(=O)[C@@H]2CC=C(CCC=C(C)C)C[C@H]2c2ccccc2)c(O)c1,fold change (FC),MIA PaCa-2 [1],0.31
same,fold change (FC),MIA PaCa-2 [2],0.4
same,fold change (FC),MIA PaCa-2 [3],0.43
same,fold change (FC),MIA PaCa-2 [4],0.43
same,fold change (FC),MIA PaCa-2 [5],0.21
same,fold change (FC),MIA PaCa-2 [6],0.4
same,fold change (FC),MIA PaCa-2 [7],0.43
same,fold change (FC),MIA PaCa-2 [8],1.87
same,Activity,MIA PaCa-2 [9],Active
same,fold change (FC),MIA PaCa-2 [10],0.47
same,Activity,MIA PaCa-2 [11],Active
same,fold change (FC),MIA PaCa-2 [12],0.49
same,fold change (FC),MIA PaCa-2 [13],0.53
same,fold change (FC),MIA PaCa-2 [14],0.53
same,fold change (FC),MIA PaCa-2 [15],0.46
same,fold change (FC),MIA PaCa-2 [16],0.44
same,Activity,MIA PaCa-2 [17],Active
same,fold change (FC),MIA PaCa-2 [18],0.29
same,inhibition,MIA PaCa-2 [19],inactive
same,Activity,MIA PaCa-2 [20],181 mg
same,fold change (FC),MIA PaCa-2 [21],0.44
same,inhibition,PANC-1 [22],inactive
same,fold change (FC),MIA PaCa-2 [23],0.43
same,Activity,PANC-1 [24],36%
same,inhibition,MIA PaCa-2 [25],inactive
same,fold change (FC),MIA PaCa-2 [26],0.48
same,fold change (FC),MIA PaCa-2 [27],0.48
